What is called IC50 is the point on the concentration scale where inhibition reaches its midpoint. Low values mean greater potency, high ones weaker potency.

Experiment in all cases: MTT assay
Type in all cases: cell-based, human
Background: Formazan colour is commonly taken as a measure of viable cells.

Data set [1] has as its system HEK-293. As to the method: (§1) Human cancer cell lines (MDA-MB-231, LNCaP, Caco-2) and a human healthy cell line (HEK-293) were obtained from the European Collection of Cell Cultures. The cells were incubated in a humidified incubator (37 °C, 5% CO2) and cultured under standard conditions in Dulbecco’s modified Eagle medium (DMEM), 10% heat-inactivated fetal bovine serum, 100 U mL^–1 penicillin, 100 U mL^–1 streptomycin, and 4 mM L-glutamine. […] A cell culture medium was used to make further dilutions, while keeping the equivalent of DMF below 0.5% of the total volume.[94] […]
(§2) 7. Cell Viability Inhibition Assay
(§3) MDA-MB-231, LNCaP, Caco-2 and HEK-293 cells (5x10^3 per well) seeded in 96-well plates to assess cell viability by the 3-[4,5-dimethylthiazol-2-yl]-2,5-diphenyltetrazolium bromide (MTT) assay for 24 h at 37°C. Then cells were treated with compound 3 at different concentrations (3-100 µM) at 100μl/well. In parallel, the traditional anticancer agent cisplatin and etoposid was used as positive controls under identical conditions. After 24, 48 and 72 h incubation, 5 mg/ml MTT solution (20 μl/well) was added and cultured for another 4 h. Then, the supernatant was discarded and dimethyl sulfoxide was added (100 μl/well). The absorbance (A) was measured spectrophotometrically at 540 nm by a Microplate Reader (SpectraMax i3x).
(§4) A graph was plotted between the concentrations of the extract versus the percent viability. The […]
(§5) calculated from graph. All assays were performed in three replicates per concentration level. 11 […]

The subject of data set [2] is LNCaP. The conditions noted are these: for IC50: LNCaP. As to the method: as §1, §2, §3, §4, §5
Data set [3] relates to MDA-MB-231. As to the method: as §1, §2, §3, §4, §5
The subject of data set [4] is Caco-2. The conditions noted are these: for IC50: Homo sapiens. Here is the method:
as §1, §2
MDA-MB-231, LNCaP, Caco-2 and HEK-293 cells (5x10^3 per well) seeded in 96-well plates to assess cell viability by the 3-[4,5-dimethylthiazol-2-yl]-2,5-diphenyltetrazolium bromide (MTT) assay for 24 h at 37°C. Then cells were treated with compound 3 at different concentrations (3-100 µM) at 100μl/well. […]
and etoposid was used as positive controls under identical conditions. After 24, 48 and 72 h incubation, 5 mg/ml MTT solution (20 μl/well) was added and cultured for another 4 h. Then, the supernatant was discarded and dimethyl sulfoxide was added (100 μl/well). The absorbance (A) was measured spectrophotometrically at 540 nm by a Microplate Reader (SpectraMax i3x).
as §4, §5

Setting [5] is: 48 h, SI = IC50 on normal cells/IC50 on cancer cells.

For `N.N.[Cl][Pt][Cl]` [cisplatin], the half-inhibitory concentration (IC50) in data set [1] (HEK-293, 24 h) was 18.62 ± 0.09 µM; in data set [1] (HEK-293, 48 h) it was 4.7 ± 0.01 µM; in data set [1] (HEK-293, 72 h) it was 2.43 ± 0.01 µM; in data set [2] (24 h), 26.1 ± 0.58 µM; in data set [2] (48 h), 25.9 ± 0.48 µM; in data set [2] (72 h), 10.3 ± 0.28 µM. In addition, the IC50 in data set [3] (MDA-MB-231, 24 h) was found to be 8.43 ± 0.01 µM; in data set [3] (MDA-MB-231, 48 h), 2.19 ± 0.02 µM; in data set [3] (MDA-MB-231, 72 h) it was 1.78 ± 0.01 µM.

On to `COc1cc([C@@H]2c3cc4c(cc3[C@@H](O[C@@H]3O[C@@H]5CO[C@@H](C)O[C@H]5[C@H](O)[C@H]3O)[C@H]3COC(=O)[C@H]23)OCO4)cc(OC)c1O` [etoposide], for which the IC50 in data set [1] (Homo sapiens, HEK293, HEK-293, 24 h) is 110.3 ± 0.16 µM; in data set [1] (Homo sapiens, HEK293, HEK-293, 48 h) it was 59.2 ± 0.32 µM; in data set [1] (Homo sapiens, HEK293, HEK-293, 72 h) it was 51.62 ± 0.48 µM; in data set [2] (Homo sapiens, 24 h), 81.47 ± 0.62 µM; in data set [2] (Homo sapiens, 48 h), 62.02 ± 0.61 µM; in data set [2] (Homo sapiens, 72 h) it was 20.79 ± 0.08 µM. For the same molecule, the concentration for half-maximal inhibition (IC50) stood at 85.4 ± 0.74 µM in data set [3] (Homo sapiens, MDA-MB-231, 24 h); 63.17 ± 0.05 µM in data set [3] (Homo sapiens, MDA-MB-231, 48 h); 24.3 ± 0.44 µM in data set [3] (Homo sapiens, MDA-MB-231, 72 h); 76.27 ± 0.34 µM in data set [4] (Caco-2, 24 h); 53.81 ± 0.17 µM in data set [4] (Caco-2, 48 h); 17.5 ± 0.26 µM in data set [4] (Caco-2, 72 h). Further, in data set [2] (setting [5]), the SI HEK-293/LNCap came out at 0.95. The same molecule registered an SI HEK-293/MDA-MB-231 in data set [3] (setting [5]) of 0.94. The SI HEK-293/Caco-2 in data set [4] (setting [5]) was found to be 1.1.
